Legend:
Test in all cases: Bliss interaction score (quartile over a dose matrix) (fitness difference); higher = more antagonism (negative = synergy)
[1] = test system: B. subtilis 168
Summary of the method: (§1)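 Combination data were used to infer fitness under each single drug. Fitness is the OD595 at entry into stationary phase divided by the robust mean of the plate's no-drug wells, with a cap of 1. The Bliss score is the observed minus the expected product fitness, summarised by quartiles over technical, biological and donor/recipient replicates.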

[2] = test system: S. aureus DSM 20231
Summary of the method: as §1

[3] = test system: S. aureus Newman
Summary of the method: as §1

[4] = test system: S. pneumoniae D39V
Summary of the method: as §1
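Also: first quartile when negative (synergy) and third quartile when positive (antagonism).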

SMILES | Bliss interaction score [1] | Bliss interaction score [2] | Bliss interaction score [3] | Bliss interaction score [4] | Bliss interaction score ([1]; main component drawn) | Bliss interaction score ([2]; main component drawn) | Bliss interaction score ([3]; main component drawn) | Bliss interaction score ([4]; main component drawn)
O=C(N[C@H](CO)[C@H](O)c1ccc([N+](=O)[O-])cc1)C(Cl)Cl [Chloramphenicol] + CN(C)[C@@H]1C(O)=C(C(N)=O)C(=O)[C@@]2(O)C(O)=C3C(=O)c4c(O)ccc(Cl)c4[C@@](C)(O)[C@H]3C[C@@H]12 [Clortetracycline] | -0.117 | 0.0518 | -0.0412 | -0.0404 |  |  |  | 
O=C(N[C@H](CO)[C@H](O)c1ccc([N+](=O)[O-])cc1)C(Cl)Cl [Chloramphenicol] + CN[C@H](CC(C)C)C(=O)N[C@H]1C(=O)N[C@@H](CC(N)=O)C(=O)N[C@H]2C(=O)N[C@H]3C(=O)N[C@H](C(=O)N[C@H](C(=O)O)c4cc(O)cc(O)c4-c4cc3ccc4O)[C@H](O[C@H]3C[C@](C)(N)[C@@H](O)[C@H](C)O3)c3ccc(c(Cl)c3)Oc3cc2cc(c3O[C@@H]2O[C@H](CO)[C@@H](O)[C@H](O)[C@H]2O[C@H]2C[C@](C)(NCc3ccc(-c4ccc(Cl)cc4)cc3)[C@@H](O)[C@H](C)O2)Oc2ccc(cc2Cl)[C@H]1O [Oritavancin] | 0.0647 | 0.0571 | -0.0346 | 0.0499 |  |  |  | 
O=C(N[C@H](CO)[C@H](O)c1ccc([N+](=O)[O-])cc1)C(Cl)Cl [Chloramphenicol] + CO[C@@H]1[C@@H](OC(N)=O)[C@@H](O)[C@H](Oc2ccc3c(O)c(NC(=O)c4ccc(O)c(CC=C(C)C)c4)c(=O)oc3c2C)OC1(C)C [Novobiocin] | 0.0928 | 0.0712 | 0.0758 | -0.111 |  |  |  | 
O=C(N[C@H](CO)[C@H](O)c1ccc([N+](=O)[O-])cc1)C(Cl)Cl [Chloramphenicol] + CO[C@@]12[C@H](COC(N)=O)C3=C(C(=O)C(C)=C(N)C3=O)N1C[C@@H]1N[C@@H]12 [MitomycinC] | 0.114 | -0.0503 | 0.102 | -0.0831 |  |  |  | 
O=C(N[C@H](CO)[C@H](O)c1ccc([N+](=O)[O-])cc1)C(Cl)Cl [Chloramphenicol] + C[C@H]1c2cccc(O)c2C(=O)C2=C(O)[C@]3(O)C(=O)C(C(N)=O)=C(O)[C@@H](N(C)C)[C@@H]3[C@@H](O)[C@@H]21 [Doxycycline] | -0.0915 | 0.0395 | 0.0197 | -0.06 |  |  |  | 
O=C(N[C@H](CO)[C@H](O)c1ccc([N+](=O)[O-])cc1)C(Cl)Cl [Chloramphenicol] + Clc1ccc(COC(Cn2ccnc2)c2ccc(Cl)cc2Cl)c(Cl)c1 [Miconazole] | 0.0615 | 0.0813 | 0.0868 | 0.0799 |  |  |  | 
O=C(N[C@H](CO)[C@H](O)c1ccc([N+](=O)[O-])cc1)C(Cl)Cl [Chloramphenicol] + N[C@@H]1CONC1=O [CycloserineD] | 0.0478 | -0.168 | -0.144 | 0.141 |  |  |  | 
O=C(N[C@H](CO)[C@H](O)c1ccc([N+](=O)[O-])cc1)C(Cl)Cl [Chloramphenicol] + O=C(O)[C@H]1/C(=C/CO)O[C@@H]2CC(=O)N21 [Clavulanic] | 0.0981 | -0.265 | 0.202 | -0.0693 |  |  |  | 
O=C(N[C@H](CO)[C@H](O)c1ccc([N+](=O)[O-])cc1)C(Cl)Cl [Chloramphenicol] + Oc1cc(Cl)ccc1Oc1ccc(Cl)cc1Cl [Triclosan] | -0.0443 | -0.0764 | 0.0302 | 0.0444 |  |  |  | 
CC[C@H]1OC(=O)[C@H](C)[C@@H](O[C@H]2C[C@@](C)(OC)[C@@H](O)[C@H](C)O2)[C@H](C)[C@@H](O[C@@H]2O[C@H](C)C[C@H](N(C)C)[C@H]2O)[C@](C)(OC)C[C@@H](C)C(=O)[C@H](C)[C@@H](O)[C@]1(C)O [Clarithromycin] + CC1(C)S[C@@H]2[C@H](NC(=O)Cc3ccccc3)C(=O)N2[C@H]1C(=O)O [PenicillinG] | 0.0431 | -0.0458 | -0.0938 | -0.0413 |  |  |  | 
CC[C@H]1OC(=O)[C@H](C)[C@@H](O[C@H]2C[C@@](C)(OC)[C@@H](O)[C@H](C)O2)[C@H](C)[C@@H](O[C@@H]2O[C@H](C)C[C@H](N(C)C)[C@H]2O)[C@](C)(OC)C[C@@H](C)C(=O)[C@H](C)[C@@H](O)[C@]1(C)O [Clarithromycin] + CC(=O)O[C@H]1C[C@@]2(C)[C@@H](C[C@@H](O)[C@H]3[C@@]4(C)CC[C@@H](O)[C@@H](C)[C@@H]4CC[C@@]32C)/C1=C(\CCC=C(C)C)C(=O)O [Fusidic acid] | -0.059 | 0.0257 | 0.0229 | -0.0728 |  |  |  | 
CC[C@H]1OC(=O)[C@H](C)[C@@H](O[C@H]2C[C@@](C)(OC)[C@@H](O)[C@H](C)O2)[C@H](C)[C@@H](O[C@@H]2O[C@H](C)C[C@H](N(C)C)[C@H]2O)[C@](C)(OC)C[C@@H](C)C(=O)[C@H](C)[C@@H](O)[C@]1(C)O [Clarithromycin] + CCCCCCCCCC(=O)N[C@@H]1[C@H]([C@@H]([C@H](O[C@H]1OC2=C3C=C4C=C2OC5=C(C=C(C=C5)[C@H]([C@H]6C(=O)N[C@@H](C7=C(C(=CC(=C7)O)OC8[C@H]([C@H]([C@@H]([C@H](O8)CO)O)O)O)C9=C(C=CC(=C9)[C@H](C(=O)N6)NC(=O)[C@@H]4NC(=O)[C@@H]1C2=CC(=CC(=C2)OC2=C(C=CC(=C2)[C@H](C(=O)N[C@H](CC2=CC(=C(O3)C=C2)Cl)C(=O)N1)N)O)O)O)C(=O)O)O[C@H]1[C@@H]([C@H]([C@@H]([C@H](O1)CO)O)O)NC(=O)C)Cl)CO)O)O [Teicoplanin] |  |  |  |  | 0.0401 | 0.099 | 0.173 | -0.0509
CC[C@H]1OC(=O)[C@H](C)[C@@H](O[C@H]2C[C@@](C)(OC)[C@@H](O)[C@H](C)O2)[C@H](C)[C@@H](O[C@@H]2O[C@H](C)C[C@H](N(C)C)[C@H]2O)[C@](C)(OC)C[C@@H](C)C(=O)[C@H](C)[C@@H](O)[C@]1(C)O [Clarithromycin] + CCC[C@@H]1C[C@@H](C(=O)N[C@@H]([C@H]2O[C@H](SC)[C@H](O)[C@@H](O)[C@H]2O)[C@H](C)Cl)N(C)C1 [Clindamycin] | 0.0458 | -0.0458 | -0.066 | 0.0678 |  |  |  | 
CC[C@H]1OC(=O)[C@H](C)[C@@H](O[C@H]2C[C@@](C)(OC)[C@@H](O)[C@H](C)O2)[C@H](C)[C@@H](O[C@@H]2O[C@H](C)C[C@H](N(C)C)[C@H]2O)[C@](C)(OC)C[C@@H](C)C(=O)[C@H](C)[C@@H](O)[C@]1(C)O [Clarithromycin] + CC[C@H]1OC(=O)[C@H](C)C(=O)[C@H](C)[C@@H](O[C@@H]2O[C@H](C)C[C@H](N(C)C)[C@H]2O)[C@](C)(OC)C[C@@H](C)C(=O)[C@H](C)[C@H]2N(CCCCn3cnc(-c4cccnc4)c3)C(=O)O[C@]12C [Telithromycin] | 0.0309 | -0.0599 | -0.0507 | 0.056 |  |  |  | 
CC[C@H]1OC(=O)[C@H](C)[C@@H](O[C@H]2C[C@@](C)(OC)[C@@H](O)[C@H](C)O2)[C@H](C)[C@@H](O[C@@H]2O[C@H](C)C[C@H](N(C)C)[C@H]2O)[C@](C)(OC)C[C@@H](C)C(=O)[C@H](C)[C@@H](O)[C@]1(C)O [Clarithromycin] + CC[C@H]1OC(=O)[C@H](C)[C@@H](O[C@H]2C[C@@](C)(OC)[C@@H](O)[C@H](C)O2)[C@H](C)[C@@H](O[C@@H]2O[C@H](C)C[C@H](N(C)C)[C@H]2O)[C@](C)(O)C[C@@H](C)C(=O)[C@H](C)[C@@H](O)[C@]1(C)O [Erythromycin] | -0.0372 | 0.0159 | -0.0296 | 0.0551 |  |  |  | 
CC[C@H]1OC(=O)[C@H](C)[C@@H](O[C@H]2C[C@@](C)(OC)[C@@H](O)[C@H](C)O2)[C@H](C)[C@@H](O[C@@H]2O[C@H](C)C[C@H](N(C)C)[C@H]2O)[C@](C)(OC)C[C@@H](C)C(=O)[C@H](C)[C@@H](O)[C@]1(C)O [Clarithromycin] + CN(C)[C@@H]1C(O)=C(C(N)=O)C(=O)[C@@]2(O)C(O)=C3C(=O)c4c(O)ccc(Cl)c4[C@@](C)(O)[C@H]3C[C@@H]12 [Clortetracycline] | -0.392 | -0.28 | -0.094 | 0.0391 |  |  |  | 
CC[C@H]1OC(=O)[C@H](C)[C@@H](O[C@H]2C[C@@](C)(OC)[C@@H](O)[C@H](C)O2)[C@H](C)[C@@H](O[C@@H]2O[C@H](C)C[C@H](N(C)C)[C@H]2O)[C@](C)(OC)C[C@@H](C)C(=O)[C@H](C)[C@@H](O)[C@]1(C)O [Clarithromycin] + CN[C@H](CC(C)C)C(=O)N[C@H]1C(=O)N[C@@H](CC(N)=O)C(=O)N[C@H]2C(=O)N[C@H]3C(=O)N[C@H](C(=O)N[C@H](C(=O)O)c4cc(O)cc(O)c4-c4cc3ccc4O)[C@H](O[C@H]3C[C@](C)(N)[C@@H](O)[C@H](C)O3)c3ccc(c(Cl)c3)Oc3cc2cc(c3O[C@@H]2O[C@H](CO)[C@@H](O)[C@H](O)[C@H]2O[C@H]2C[C@](C)(NCc3ccc(-c4ccc(Cl)cc4)cc3)[C@@H](O)[C@H](C)O2)Oc2ccc(cc2Cl)[C@H]1O [Oritavancin] | 0.0293 | -0.0389 | -0.0471 | 0.0635 |  |  |  | 
CC[C@H]1OC(=O)[C@H](C)[C@@H](O[C@H]2C[C@@](C)(OC)[C@@H](O)[C@H](C)O2)[C@H](C)[C@@H](O[C@@H]2O[C@H](C)C[C@H](N(C)C)[C@H]2O)[C@](C)(OC)C[C@@H](C)C(=O)[C@H](C)[C@@H](O)[C@]1(C)O [Clarithromycin] + CO[C@@H]1[C@@H](OC(N)=O)[C@@H](O)[C@H](Oc2ccc3c(O)c(NC(=O)c4ccc(O)c(CC=C(C)C)c4)c(=O)oc3c2C)OC1(C)C [Novobiocin] | 0.125 | -0.0522 | 0.0643 | -0.0569 |  |  |  | 
CC[C@H]1OC(=O)[C@H](C)[C@@H](O[C@H]2C[C@@](C)(OC)[C@@H](O)[C@H](C)O2)[C@H](C)[C@@H](O[C@@H]2O[C@H](C)C[C@H](N(C)C)[C@H]2O)[C@](C)(OC)C[C@@H](C)C(=O)[C@H](C)[C@@H](O)[C@]1(C)O [Clarithromycin] + CO[C@@]12[C@H](COC(N)=O)C3=C(C(=O)C(C)=C(N)C3=O)N1C[C@@H]1N[C@@H]12 [MitomycinC] | 0.036 | -0.0723 | 0.0537 | -0.0527 |  |  |  | 
CC[C@H]1OC(=O)[C@H](C)[C@@H](O[C@H]2C[C@@](C)(OC)[C@@H](O)[C@H](C)O2)[C@H](C)[C@@H](O[C@@H]2O[C@H](C)C[C@H](N(C)C)[C@H]2O)[C@](C)(OC)C[C@@H](C)C(=O)[C@H](C)[C@@H](O)[C@]1(C)O [Clarithromycin] + COc1cc(Cc2cnc(N)nc2N)cc(OC)c1OC [Trimethoprim] | -0.193 | 0.0723 | 0.0667 | -0.0331 |  |  |  | 
CC[C@H]1OC(=O)[C@H](C)[C@@H](O[C@H]2C[C@@](C)(OC)[C@@H](O)[C@H](C)O2)[C@H](C)[C@@H](O[C@@H]2O[C@H](C)C[C@H](N(C)C)[C@H]2O)[C@](C)(OC)C[C@@H](C)C(=O)[C@H](C)[C@@H](O)[C@]1(C)O [Clarithromycin] + N[C@@H]1CONC1=O [CycloserineD] | 0.077 | -0.127 | -0.0691 | 0.136 |  |  |  | 
CC[C@H]1OC(=O)[C@H](C)[C@@H](O[C@H]2C[C@@](C)(OC)[C@@H](O)[C@H](C)O2)[C@H](C)[C@@H](O[C@@H]2O[C@H](C)C[C@H](N(C)C)[C@H]2O)[C@](C)(OC)C[C@@H](C)C(=O)[C@H](C)[C@@H](O)[C@]1(C)O [Clarithromycin] + O=C(O)[C@H]1/C(=C/CO)O[C@@H]2CC(=O)N21 [Clavulanic] | 0.047 | -0.212 | 0.277 | -0.059 |  |  |  | 

From the supplement of paper PMC10627819
